From ChEMBL document CHEMBL1649156, “Antianaerobic activity of sulopenem compared to six other agents” (2009)
Values after ≈ are worked out from the molar mass of the structure shown.

Key:
Format in all cases: functional
[1] = tested on: Enterocloster clostridioformis; experiment: Antimicrobial activity in Clostridium clostridioforme by CLSI agar dilution method
[2] = tested on: Clostridioides difficile; experiment: Antimicrobial activity in Clostridium difficile by CLSI agar dilution method
[3] = tested on: Parvimonas micra; experiment: Antimicrobial activity in Micromonas micros by CLSI agar dilution method
[4] = tested on: Bacteroides ovatus; experiment: Antimicrobial activity in Bacteroides ovatus by CLSI agar dilution method
[5] = tested on: Prevotella denticola; experiment: Antimicrobial activity in Prevotella denticola by CLSI agar dilution method
[6] = tested on: Peptoniphilus asaccharolyticus; experiment: Antimicrobial activity in Peptoniphilus asaccharolyticus by CLSI agar dilution method
[7] = tested on: Prevotella intermedia; experiment: Antimicrobial activity in Prevotella intermedia by CLSI agar dilution method
[8] = tested on: Hoylesella loescheii; experiment: Antimicrobial activity in Prevotella loescheii by CLSI agar dilution method
[9] = tested on: Parabacteroides distasonis; experiment: Antimicrobial activity in Bacteroides distasonis by CLSI agar dilution method
[10] = tested on: Clostridium perfringens; experiment: Antimicrobial activity in Clostridium perfringens by CLSI agar dilution method
[11] = tested on: Prevotella nigrescens; experiment: Antimicrobial activity in Prevotella nigrescens by CLSI agar dilution method
[12] = tested on: Peptostreptococcus anaerobius; experiment: Antimicrobial activity in Peptostreptococcus anaerobius by CLSI agar dilution method
[13] = tested on: Prevotella salivae; experiment: Antimicrobial activity in Prevotella salivae by CLSI agar dilution method; settings: Segatella salivae
[14] = tested on: Prevotella melaninogenica; experiment: Antimicrobial activity in Prevotella melaninogenica by CLSI agar dilution method
[15] = tested on: Prevotella bergensis; experiment: Antimicrobial activity in Prevotella bergensis by CLSI agar dilution method; settings: Hallella bergensis
[16] = tested on: Tissierella praeacuta; experiment: Antimicrobial activity in Clostridium hastiforme by CLSI agar dilution method
[17] = tested on: Porphyromonas gingivalis; experiment: Antimicrobial activity in Porphyromonas gingivalis by CLSI agar dilution method
[18] = tested on: Bacteroides uniformis; experiment: Antimicrobial activity in Bacteroides uniformis by CLSI agar dilution method
[19] = tested on: Bacteroides fragilis; experiment: Antimicrobial activity in Bacteroides fragilis by CLSI agar dilution method
[20] = tested on: Prevotella sp.; experiment: Antimicrobial activity in Prevotella sp.by CLSI agar dilution method
[21] = tested on: Prevotella bivia; experiment: Antimicrobial activity in Prevotella bivia by CLSI agar dilution method
[22] = tested on: [Clostridium] innocuum; experiment: Antimicrobial activity in Clostridium innocuum by CLSI agar dilution method
[23] = tested on: Anaerococcus prevotii; experiment: Antimicrobial activity in Anaerococcus prevotii by CLSI agar dilution method
[24] = tested on: Fusobacterium mortiferum; experiment: Antimicrobial activity in Fusobacterium mortiferum by CLSI agar dilution method
[25] = tested on: Fusobacterium nucleatum; experiment: Antimicrobial activity in Fusobacterium nucleatum by CLSI agar dilution method
[26] = tested on: Clostridium sp.; experiment: Antimicrobial activity in Clostridium sp. by CLSI agar dilution method
[27] = tested on: Cutibacterium acnes; experiment: Antimicrobial activity in Propionibacterium acnes by CLSI agar dilution method
[28] = tested on: Prevotella baroniae; experiment: Antimicrobial activity in Prevotella baroniae by CLSI agar dilution method; settings: Segatella baroniae
[29] = tested on: Fusobacterium varium; experiment: Antimicrobial activity in Fusobacterium varium by CLSI agar dilution method
[30] = tested on: Actinomyces; experiment: Antimicrobial activity in Actinomyces by CLSI agar dilution method
[31] = tested on: Porphyromonas asaccharolytica; experiment: Antimicrobial activity in Porphyromonas asaccharolytica by CLSI agar dilution method
[32] = tested on: Thomasclavelia ramosa; experiment: Antimicrobial activity in Clostridium ramosum by CLSI agar dilution method
[33] = tested on: Hoylesella oralis; experiment: Antimicrobial activity in Prevotella oralis group by CLSI agar dilution method
[34] = tested on: Paeniclostridium sordellii; experiment: Antimicrobial activity in Clostridium sordellii by CLSI agar dilution method; settings: Paraclostridium sordellii
[35] = tested on: Clostridium tertium; experiment: Antimicrobial activity in Clostridium tertium by CLSI agar dilution method
[36] = tested on: Phocaeicola vulgatus; experiment: Antimicrobial activity in Bacteroides vulgatus by CLSI agar dilution method
[37] = tested on: Bifidobacterium; experiment: Antimicrobial activity in Bifidobacterium by CLSI agar dilution method
[38] = tested on: Bacteroides stercoris; experiment: Antimicrobial activity in Bacteroides stercoris by CLSI agar dilution method
[39] = tested on: Fusobacterium necrophorum; experiment: Antimicrobial activity in Fusobacterium necrophorum by CLSI agar dilution method
[40] = tested on: Prevotella veroralis; experiment: Antimicrobial activity in Prevotella veroralis by CLSI agar dilution method
[41] = tested on: Lactobacillus; experiment: Antimicrobial activity in Lactobacillus by CLSI agar dilution method
[42] = tested on: Bacteroides thetaiotaomicron; experiment: Antimicrobial activity in Bacteroides thetaiotaomicron by CLSI agar dilution method
[43] = tested on: Anaerococcus tetradius; experiment: Antimicrobial activity in Anaerococcus tetradius by CLSI agar dilution method
[44] = tested on: Paraclostridium bifermentans; experiment: Antimicrobial activity in Clostridium bifermentans by CLSI agar dilution method
[45] = tested on: Clostridium butyricum; experiment: Antimicrobial activity in Clostridium butyricum by CLSI agar dilution method
[46] = tested on: Eggerthella lenta; experiment: Antimicrobial activity in Eggerthella lenta by CLSI agar dilution method
[47] = tested on: Clostridium cadaveris; experiment: Antimicrobial activity in Clostridium cadaveris by CLSI agar dilution method
[48] = tested on: Prevotella disiens; experiment: Antimicrobial activity in Prevotella disiens by CLSI agar dilution method
[49] = tested on: Finegoldia magna; experiment: Antimicrobial activity in Finegoldia magna by CLSI agar dilution method
[50] = tested on: Prevotella corporis; experiment: Antimicrobial activity in Prevotella corporis by CLSI agar dilution method
[51] = tested on: Prevotella buccae; experiment: Antimicrobial activity in Prevotella buccae by CLSI agar dilution method; settings: Segatella buccae

SMILES: Cc1ncc([N+](=O)[O-])n1CCO [METRONIDAZOLE]
- MIC [1]: ≤ 0.125 µg/mL
- MIC50 [2]: 0.5 µg/mL (≈ 2.92 µM)
- MIC90 [2]: 0.5 µg/mL (≈ 2.92 µM)
- MIC50 [3]: 0.25 µg/mL (≈ 1.46 µM)
- MIC90 [3]: 0.5 µg/mL (≈ 2.92 µM)
- MIC50 [4]: 1 µg/mL (≈ 5.84 µM)
- MIC90 [4]: 1 µg/mL (≈ 5.84 µM)
- MIC50 [5]: 0.5 µg/mL (≈ 2.92 µM)
- MIC90 [5]: 1 µg/mL (≈ 5.84 µM)
- MIC [6]: ≤ 0.125 µg/mL
- MIC50 [6]: 1 µg/mL (≈ 5.84 µM)
- MIC50 [7]: 0.5 µg/mL (≈ 2.92 µM)
- MIC90 [7]: 1 µg/mL (≈ 5.84 µM)
- MIC [8]: 0.5 µg/mL (≈ 2.92 µM)
- MIC50 [9]: 1 µg/mL (≈ 5.84 µM)
- MIC90 [9]: 1 µg/mL (≈ 5.84 µM)
- MIC50 [10]: 1 µg/mL (≈ 5.84 µM)
- MIC90 [10]: 1 µg/mL (≈ 5.84 µM)
- MIC50 [11]: 0.5 µg/mL (≈ 2.92 µM)
- MIC90 [11]: 1 µg/mL (≈ 5.84 µM)
- MIC50 [12]: 0.5 µg/mL (≈ 2.92 µM)
- MIC90 [12]: 1 µg/mL (≈ 5.84 µM)
- MIC [13]: ≤ 0.125 µg/mL
- MIC50 [14]: 0.5 µg/mL (≈ 2.92 µM)
- MIC90 [14]: 1 µg/mL (≈ 5.84 µM)
- MIC [15]: 0.5 µg/mL (≈ 2.92 µM)
- MIC [16]: 0.25 µg/mL (≈ 1.46 µM)
- MIC [17]: ≤ 0.125 µg/mL
- MIC [18]: 0.5 µg/mL (≈ 2.92 µM)
- MIC50 [18]: 0.5 µg/mL (≈ 2.92 µM)
- MIC50 [19]: 1 µg/mL (≈ 5.84 µM)
- MIC90 [19]: 1 µg/mL (≈ 5.84 µM)
- MIC [20]: 0.5 µg/mL (≈ 2.92 µM)
- MIC50 [21]: 2 µg/mL (≈ 11.7 µM)
- MIC90 [21]: 4 µg/mL (≈ 23.4 µM)
- MIC [22]: ≤ 0.125 µg/mL
- MIC [23]: 1 µg/mL (≈ 5.84 µM)
- MIC50 [24]: 0.25 µg/mL (≈ 1.46 µM)
- MIC90 [24]: 0.5 µg/mL (≈ 2.92 µM)
- MIC [25]: ≤ 0.125 µg/mL
- MIC50 [25]: ≤ 0.125 µg/mL
- MIC90 [25]: 0.5 µg/mL (≈ 2.92 µM)
- MIC50 [26]: 1 µg/mL (≈ 5.84 µM)
- MIC90 [26]: 1 µg/mL (≈ 5.84 µM)
- MIC [27]: > 16 µg/mL
- MIC50 [27]: > 16 µg/mL
- MIC90 [27]: > 16 µg/mL
- MIC [28]: 0.5 µg/mL (≈ 2.92 µM)
- MIC50 [29]: 0.25 µg/mL (≈ 1.46 µM)
- MIC90 [29]: 0.5 µg/mL (≈ 2.92 µM)
- MIC [30]: > 1 µg/mL
- MIC50 [30]: > 16 µg/mL
- MIC [31]: ≤ 0.125 µg/mL
- MIC [32]: 1 µg/mL (≈ 5.84 µM)
- MIC [33]: ≤ 0.125 µg/mL
- MIC [34]: 1 µg/mL (≈ 5.84 µM)
- MIC [35]: 0.5 µg/mL (≈ 2.92 µM)
- MIC50 [35]: 1 µg/mL (≈ 5.84 µM)
- MIC50 [36]: 0.5 µg/mL (≈ 2.92 µM)
- MIC90 [36]: 1 µg/mL (≈ 5.84 µM)
- MIC50 [37]: > 16 µg/mL
- MIC90 [37]: > 16 µg/mL
- MIC [38]: 1 µg/mL (≈ 5.84 µM)
- MIC50 [38]: 1 µg/mL (≈ 5.84 µM)
- MIC [39]: ≤ 0.125 µg/mL
- MIC50 [39]: 0.25 µg/mL (≈ 1.46 µM)
- MIC [40]: 0.25 µg/mL (≈ 1.46 µM)
- MIC [41]: > 16 µg/mL
- MIC50 [41]: > 16 µg/mL
- MIC90 [41]: 16 µg/mL (≈ 93.5 µM)
- MIC [42]: 1 µg/mL (≈ 5.84 µM)
- MIC50 [42]: 1 µg/mL (≈ 5.84 µM)
- MIC90 [42]: 2 µg/mL (≈ 11.7 µM)
- MIC50 [43]: 1 µg/mL (≈ 5.84 µM)
- MIC90 [43]: 1 µg/mL (≈ 5.84 µM)
- MIC [44]: 0.25 µg/mL (≈ 1.46 µM)
- MIC [45]: ≤ 0.125 µg/mL
- MIC50 [46]: 0.5 µg/mL (≈ 2.92 µM)
- MIC90 [46]: 0.5 µg/mL (≈ 2.92 µM)
- MIC [47]: ≤ 0.125 µg/mL
- MIC [48]: 1 µg/mL (≈ 5.84 µM)
- MIC50 [48]: 1 µg/mL (≈ 5.84 µM)
- MIC50 [49]: 0.5 µg/mL (≈ 2.92 µM)
- MIC90 [49]: 1 µg/mL (≈ 5.84 µM)
- MIC [50]: ≤ 0.125 µg/mL
- MIC50 [50]: 0.5 µg/mL (≈ 2.92 µM)
- MIC50 [51]: 1 µg/mL (≈ 5.84 µM)
- MIC90 [51]: 2 µg/mL (≈ 11.7 µM)
